Common to all, as to test: Test A preemergence
Holding throughout (assay type): in vivo

One assay concerns Kochia (Kochia scoparia). Particulars: Bassia scoparia, pre-emergence, 240 h; for pest or weed control at 500 g/ha: 500 g ai/ha; for pest or weed control at 125 g/ha: 125 g ai/ha. The procedure, abridged:
(§1)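 Visual injury scores from 0, no effect, to 100, complete control, were assigned versus untreated controls roughly 10 d after treatment in the greenhouse. Test chemicals, formulated with surfactant in a non-phytotoxic solvent, were applied to planted seeds as a preemergence soil spray or postemergence to one- to two-leaf plants 2 to 10 cm tall, in loam–sand soil.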

Assay [1] relates to giant foxtail (Setaria faberii). Particulars: Setaria faberi, pre-emergence, 240 h; for pest or weed control at 500 g/ha: 500 g ai/ha; for pest or weed control at 125 g/ha: 125 g ai/ha. The procedure, abridged: as §1
Assay [2] concerns ryegrass, Italian (Italian ryegrass, Lolium multiflorum). Particulars: Lolium multiflorum, pre-emergence, 240 h; for pest or weed control at 500 g/ha: 500 g ai/ha; for pest or weed control at 125 g/ha: 125 g ai/ha. The procedure, abridged: as §1
The test system of assay [3] is pigweed (Amaranthus retroflexus). The conditions noted are these: Amaranthus retroflexus, pre-emergence, 240 h; for pest or weed control at 500 g/ha: 500 g ai/ha; for pest or weed control at 125 g/ha: 125 g ai/ha.
The test system of assay [4] is barnyardgrass (Echinochloa crus-galli). The conditions noted are these: Echinochloa crus-galli, pre-emergence, 240 h; for pest or weed control at 500 g/ha: 500 g ai/ha; for pest or weed control at 125 g/ha: 125 g ai/ha. The procedure, abridged:
as §1

Assay [5] concerns ragweed (common ragweed, Ambrosia elatior). Particulars: Ambrosia artemisiifolia, pre-emergence, 240 h; for pest or weed control at 500 g/ha: 500 g ai/ha; for pest or weed control at 125 g/ha: 125 g ai/ha. The procedure, abridged:
as §1

[6] abbreviates: preemergence, 0 to 100 scale (0 no effect, 100 complete control), read-out: Plant response rating, Foxtail, Giant.
[7] abbreviates: Preemergence, 0 to 100 scale (0 no effect, 100 complete control), read-out: Plant response rating, Foxtail, Giant.
Where [8] appears, read: preemergence, 0 to 100 scale (0 no effect, 100 complete control), read-out: Plant response rating, Pigweed.
Setting [9] is: Preemergence, 0 to 100 scale (0 no effect, 100 complete control), read-out: Plant response rating, Pigweed.
Setting [10] is: preemergence, 0 to 100 scale (0 no effect, 100 complete control), read-out: Plant response rating, Barnyardgrass.
Setting [11] is: Preemergence, 0 to 100 scale (0 no effect, 100 complete control), read-out: Plant response rating, Barnyardgrass.
Where [12] appears, read: preemergence, visual rating after approx. 10 d, 0 to 100 scale where 0 is no effect and 100 is complete control, read-out: Plant response rating, Kochia.
Setting [13] is: preemergence, visual rating after approx. 10 d, 0 to 100 scale where 0 is no effect and 100 is complete control, read-out: Plant response rating, Foxtail, Giant.
[14] abbreviates: preemergence, visual rating after approx. 10 d, 0 to 100 scale where 0 is no effect and 100 is complete control, read-out: Plant response rating, Ryegrass, Italian.
Where [15] appears, read: preemergence, visual rating after approx. 10 d, 0 to 100 scale where 0 is no effect and 100 is complete control, read-out: Plant response rating, Pigweed.
Where [16] appears, read: preemergence, visual rating after approx. 10 d, 0 to 100 scale where 0 is no effect and 100 is complete control, read-out: Plant response rating, Barnyardgrass.
The mark [17] stands for this setting: preemergence, visual rating after approx. 10 d, 0 to 100 scale where 0 is no effect and 100 is complete control, read-out: Plant response rating, Ragweed.

Where two headings read alike, the source gives them in different places.

As to `CN1C[C@H](c2cc(C(F)(F)F)cs2)[C@@H](C(=O)Nc2cccc(F)c2F)C1=O` [Compound 1377], the pest or weed control at 500 g/ha with Kochia (Kochia scoparia) (preemergence, 0 to 100 scale (0 no effect, 100 complete control), read-out: Plant response rating, Kochia) was 80%; in assay [1] (setting [6]) it was 100%; in assay [2] (preemergence, 0 to 100 scale (0 no effect, 100 complete control), read-out: Plant response rating, Ryegrass, Italian) it was 50%; in assay [3] (setting [8]) it was 40%; in assay [4] (setting [10]), 100%; in assay [5] (preemergence, 0 to 100 scale (0 no effect, 100 complete control), read-out: Plant response rating, Ragweed) it was 30%. Besides, the pest or weed control at 125 g/ha in the assay on Kochia (Kochia scoparia) (Preemergence, 0 to 100 scale (0 no effect, 100 complete control), read-out: Plant response rating, Kochia) came to 70%; in assay [1] (setting [7]), 100%; in assay [2] (Preemergence, 0 to 100 scale (0 no effect, 100 complete control), read-out: Plant response rating, Ryegrass, Italian), 20%; in assay [3] (setting [9]), 20%; in assay [4] (setting [11]) it was 80%; in assay [5] (Preemergence, 0 to 100 scale (0 no effect, 100 complete control), read-out: Plant response rating, Ragweed), 0%.

As to `COc1cc([C@H]2CN(C)C(=O)[C@@H]2C(=O)Nc2ccccc2F)ccc1F` [Compound 1298], the pest or weed control at 125 g/ha with Kochia (Kochia scoparia) (preemergence, visual injury rating, 0 to 100 scale where 0 is no effect and 100 is complete control, approximately 10 d, read-out: Kochia plant response rating) amounted to 0%; in assay [1] (preemergence, visual injury rating, 0 to 100 scale where 0 is no effect and 100 is complete control, approximately 10 d, read-out: Foxtail, Giant plant response rating), 90%; in assay [2] (preemergence, visual injury rating, 0 to 100 scale where 0 is no effect and 100 is complete control, approximately 10 d, read-out: Ryegrass, Italian plant response rating), 0%; in assay [3] (preemergence, visual injury rating, 0 to 100 scale where 0 is no effect and 100 is complete control, approximately 10 d, read-out: Pigweed plant response rating) it was 0%; in assay [4] (preemergence, visual injury rating, 0 to 100 scale where 0 is no effect and 100 is complete control, approximately 10 d, read-out: Barnyardgrass plant response rating), 80%; in assay [5] (preemergence, visual injury rating, 0 to 100 scale where 0 is no effect and 100 is complete control, approximately 10 d, read-out: Ragweed plant response rating), 0%. Further, the pest or weed control at 500 g/ha in the assay on Kochia (Kochia scoparia) (preemergence, 0 to 100 scale where 0 is no effect and 100 is complete control, read-out: Kochia plant response rating) was 80%; in assay [1] (preemergence, 0 to 100 scale where 0 is no effect and 100 is complete control, read-out: Foxtail, Giant plant response rating) it was 90%; in assay [2] (preemergence, 0 to 100 scale where 0 is no effect and 100 is complete control, read-out: Ryegrass, Italian plant response rating), 0%; in assay [3] (preemergence, 0 to 100 scale where 0 is no effect and 100 is complete control, read-out: Pigweed plant response rating), 0%; in assay [4] (preemergence, 0 to 100 scale where 0 is no effect and 100 is complete control, read-out: Barnyardgrass plant response rating) it was 90%; in assay [5] (preemergence, 0 to 100 scale where 0 is no effect and 100 is complete control, read-out: Ragweed plant response rating), 20%.

With `CN1C[C@H](c2cccc(C3CC3)c2)[C@@H](C(=O)Nc2ccccc2F)C1=O` [Compound 815], the pest or weed control at 125 g/ha was determined as 70% in the assay on Kochia (Kochia scoparia) (setting [12]); 90% in assay [1] (setting [13]); 80% in assay [2] (setting [14]); 30% in assay [3] (setting [15]); 90% in assay [4] (setting [16]); 0% in assay [5] (setting [17]). Also, the pest or weed control at 500 g/ha in the assay on Kochia (Kochia scoparia) (Preemergence, visual injury vs untreated controls after approximately 10 d, read-out: Kochia plant response rating (0 to 100 scale where 0 is no effect and 100 is complete control)) turned out to be 80%; in assay [1] (Preemergence, visual injury vs untreated controls after approximately 10 d, read-out: Foxtail, Giant plant response rating (0 to 100 scale where 0 is no effect and 100 is complete control)) it was 100%; in assay [2] (Preemergence, visual injury vs untreated controls after approximately 10 d, read-out: Ryegrass, Italian plant response rating (0 to 100 scale where 0 is no effect and 100 is complete control)), 80%; in assay [3] (Preemergence, visual injury vs untreated controls after approximately 10 d, read-out: Pigweed plant response rating (0 to 100 scale where 0 is no effect and 100 is complete control)) it was 50%; in assay [4] (Preemergence, visual injury vs untreated controls after approximately 10 d, read-out: Barnyardgrass plant response rating (0 to 100 scale where 0 is no effect and 100 is complete control)), 100%; in assay [5] (Preemergence, visual injury vs untreated controls after approximately 10 d, read-out: Ragweed plant response rating (0 to 100 scale where 0 is no effect and 100 is complete control)), 0%.

Regarding `Cc1ccc(NC(=O)[C@H]2C(=O)N(C)C[C@@H]2c2cc(F)cc(F)c2)c(F)c1F` [Compound 771], the pest or weed control at 125 g/ha was 50% in the assay with Kochia (Kochia scoparia) (setting [12]); 90% in assay [1] (setting [13]); 40% in assay [2] (setting [14]); 0% in assay [3] (setting [15]); 90% in assay [4] (setting [16]); 0% in assay [5] (setting [17]). Besides, the pest or weed control at 500 g/ha in the assay with Kochia (Kochia scoparia) (preemergence, 0 to 100 scale, 0 = no effect, 100 = complete control, read-out: Plant response rating, Kochia) amounted to 80%; in assay [1] (preemergence, 0 to 100 scale, 0 = no effect, 100 = complete control, read-out: Plant response rating, Foxtail, Giant), 90%; in assay [3] (preemergence, 0 to 100 scale, 0 = no effect, 100 = complete control, read-out: Plant response rating, Pigweed) it was 0%; in assay [4] (preemergence, 0 to 100 scale, 0 = no effect, 100 = complete control, read-out: Plant response rating, Barnyardgrass) it was 90%; in assay [5] (preemergence, 0 to 100 scale, 0 = no effect, 100 = complete control, read-out: Plant response rating, Ragweed), 50%.

As for `O=C1NCC(c2ccccc2)C1C(=O)Nc1ccccc1Oc1ccccc1` (centres unmarked) [Compound 1357], the pest or weed control at 500 g/ha in assay [1] (setting [6]), in assay [3] (setting [8]) and in assay [4] (setting [10]) was 0% each time. Besides, the pest or weed control at 125 g/ha in assay [1] (setting [7]), in assay [3] (setting [9]) and in assay [4] (setting [11]) was 0% each time.

As to `O=C1NCC(c2ccccc2)C1C(=O)Nc1cccnc1` (centres unmarked) [Compound 1356], the pest or weed control at 500 g/ha in assay [1] (setting [6]), in assay [3] (setting [8]) and in assay [4] (setting [10]) was 0% in each case. Moreover, the pest or weed control at 125 g/ha in assay [1] (setting [7]), in assay [3] (setting [9]) and in assay [4] (setting [11]) was 0% each time.

The values above are taken from patent publication US12077503B2, “Substituted cyclic amides and their use as herbicides” (FMC CORPORATION, priority 2015, dated 2024).
